Data as given in US5962475A, “Substituted benzo(B)thiophene compounds having activity as selective estrogen receptor modulators” (Eli Lilly and Company, priority 1997, dated 1999).

What was measured:
serum cholesterol = assay: Serum cholesterol in ovariectomized rats, four day oral dosing; format: in vivo, Sprague Dawley rats; details: for Serum Cholesterol (% decrease OVX): daily for 4 days, vs OVX control
Protocol: (§1) In the examples illustrating the methods, a post-menopausal model was used in which effects of different treatments upon various biological parameters were determined, including serum cholesterol concentration, uterine weight, estrogen receptor binding, uterine eosinophil peroxidase activity, MCF-7 cell proliferation, and bone density.
(§2) Seventy-five day old female Sprague Dawley rats (weight range of 200 to 225 g) were obtained from Charles River Laboratories (Portage, Mich.). The animals were either bilaterally ovariectomized (OVX) or exposed to a sham surgical procedure (Intact) at Charles River Laboratories, and then shipped after one week. Upon arrival, they were housed in metal hanging cages in groups of 3 or 4 per cage and had ad libi tum access to food (calcium content approximately 0.5%) and water for one week. Room temperature was maintained at 22.20°±1.70° C. with a minimum relative humidity of 40%. The photoperiod in the room was 12 hours light and 12 hours dark.
(§3) After a one week acclimation period (therefore, two weeks post-OVX), daily dosing with test compound was initiated. 17a-Ethynyl estradiol (EE2) (Sigma Chemical Co., St. Louis, Mo.), an orally available form of estrogen, or the test compound were given orally, unless otherwise stated, as a suspension in 1% carboxymethyl cellulose or dissolved in 20% β-cyclodextrin. Animals were dosed daily for 4 days. Following the dosing regimen, animals were weighed and anesthetized with a ketamine:xylazine (2:1, v:v) mixture. A blood sample was collected by cardiac puncture. The animals were then sacrificed by asphyxiation with CO2, the uterus was removed through a midline incision, and a wet uterine weight was determined.
Blood samples were allowed to clot at room temperature for 2 hours, and serum was obtained following centrifugation for 10 minutes at 3000 rpm. Serum cholesterol was determined using a Boehringer Mannheim Diagnostics high performance cholesterol assay. Briefly the cholesterol was oxidized to cholest-4-en-3-one and hydrogen peroxide. The hydrogen peroxide was then reacted with phenol and 4-aminophenazone in the presence of peroxidase to produce a p-quinone imine dye, which was read spectrophotemetrically at 500 nm. Cholesterol concentration was then calculated against a standard curve. The entire assay was automated using a Biomek Automated Workstation.
(§4) Data presented in Table 1 below show comparative results among control ovariectomized rats, rats treated with EE2, and rats treated with certain compounds of the present invention. […] This uterine response to estrogen is well recognized in the art.
(§5) The data presented in Table 1 reflect the response of 5 or 6 rats per treatment.

[1] = test system: uterine eosinophil peroxidase activity; assay: Uterine eosinophil peroxidase (EPO) assay in ovariectomized rats, four day dosing; format: in vivo, Sprague Dawley rats; parameters: Uterine EPO (Vmax): unit not given beside the values; details: for Uterine EPO (Vmax): daily for 4 days
Protocol: as §1, §2, §3
Uteri were kept at 4° C. until time of enzymatic analysis. The uteri were then homogenized in 50 volumes of 50 mM Tris buffer (pH--8.0) containing 0.005% Triton X-100. Upon addition of 0.01% hydrogen peroxide and 10 mM o-phenylenediamine (final concentrations) in Tris buffer, increase in absorbance was monitored for one minute at 450 nm. The presence of eosinophils in the uterus, as measured by assay of eosinophil peroxidase activity, is an indication of estrogenic activity of a compound. The maximal velocity of a 15 second interval was determined over the initial, linear portion of the reaction curve.
As is expressed in the data below, estrogenicity also was assessed by evaluating the adverse response of eosinophil infiltration into the uterus.
as §5

[2] = test system: ovariectomized (OVX) rats, uterus; assay: Uterine weight in ovariectomized rats, four day oral dosing; format: in vivo, Sprague Dawley rats; details: for Uterine Weight (% inc. OVX): daily for 4 days, vs OVX control
Protocol: as §1, §2, §3, §4, §5

[3] = test system: MCF-7 breast adenocarcinoma cells; assay: MCF-7 proliferation assay; format: cell-based; details: Homo sapiens, MCF7; MCF-7 cells, tritiated thymidine pulse after 48 hours with compound; read-out: ED50 (the source's name)
Protocol: MCF-7 breast adenocarcinoma cells (ATCC HTB 22) were maintained in MEM (minimal essential medium, phenol red-free, Sigma, St. Louis, Mo.) supplemented with 10% fetal bovine serum (FBS) (V/V), L-glutamine (2 mM), sodium pyruvate (1 mM), HEPES {(N-[2-hydroxyethyl]piperazine-N'-[2-ethanesulfonic acid]10 mM}, non-essential amino acids and bovine insulin (1 μg/ml) (maintenance medium). Ten days prior to assay, MCF-7 cells were switched to maintenance medium supplemented with 10% dextran coated charcoal stripped fetal bovine serum (DCC-FBS) assay medium) in place of 10% FBS to deplete internal stores of steroids. MCF-7 cells were removed from maintenance flasks using cell dissociation medium (Ca++/Mg++ free HBSS (phenol red-free) supplemented with 10 mM HEPES and 2 mM EDTA). Cells were washed twice with assay medium and adjusted to 80,000 cells/ml. […] Serial dilutions of drugs or DMSO as a diluent control were prepared in assay medium and […] to triplicate microcultures followed by […] assay medium for a final volume of […]. After an additional 48 hours at 37° C. in a 5% CO2 humidified incubator, microcultures were pulsed with tritiated thymidine (1 uCi/well) for 4 hours. Cultures were terminated by freezing at -70° C. for 24 hours followed by thawing and harvesting of microcultures. Samples were counted by liquid scintillation.

MCF-7 Estrogen Receptor = molecular target: T1, MCF-7 Estrogen Receptor (Homo sapiens, UniProt P03372); assay: MCF-7 estrogen receptor binding assay, competition with tritiated 17β-estradiol
T1 construct: protein from MCF-7 lysates; endogenous in cells; host or cells: MCF-7 (lysate)
T1 sequence (P03372 1-595): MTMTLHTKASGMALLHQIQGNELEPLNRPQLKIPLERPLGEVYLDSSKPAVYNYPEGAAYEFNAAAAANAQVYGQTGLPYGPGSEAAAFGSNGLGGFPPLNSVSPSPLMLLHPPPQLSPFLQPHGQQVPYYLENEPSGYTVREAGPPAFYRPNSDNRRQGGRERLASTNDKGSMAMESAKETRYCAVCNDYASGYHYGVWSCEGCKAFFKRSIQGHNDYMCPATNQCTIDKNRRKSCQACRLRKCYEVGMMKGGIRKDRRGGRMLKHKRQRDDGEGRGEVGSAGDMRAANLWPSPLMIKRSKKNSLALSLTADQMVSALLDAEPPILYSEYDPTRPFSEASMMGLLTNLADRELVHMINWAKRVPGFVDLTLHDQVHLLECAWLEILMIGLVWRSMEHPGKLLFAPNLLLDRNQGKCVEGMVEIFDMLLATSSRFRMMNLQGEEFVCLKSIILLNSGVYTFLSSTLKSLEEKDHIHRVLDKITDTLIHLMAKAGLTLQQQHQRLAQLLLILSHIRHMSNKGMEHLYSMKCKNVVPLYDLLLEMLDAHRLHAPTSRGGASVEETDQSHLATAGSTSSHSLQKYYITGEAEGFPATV
Protocol: Binding was allowed to take place for 18 hours at 5-- C., followed by the addition of 0.07 mL of dextran/charcoal and centrifugation to remove non-bound radioligand. Aliquots of supernate containing bound radioligand were mixed with scintillant and counted. Relative binding affinity (RBA) was calculated as: [formula]

| Compound | Serum Cholesterol (% decrease OVX) (serum cholesterol; 0.1 mg/kg PO) [%] | serum cholesterol, in words (serum cholesterol; orally, 0.1 mg/Kg/day) | Uterine EPO (Vmax) ([1]; 0.1 mg/kg PO) | eosinophil infiltration into the uterus, in words ([1]; ovariectomized rats, by assay of eosinophil peroxidase activity) | Uterine Weight (% inc. OVX) ([2]; 0.1 mg/kg PO) [%] | action on the uterus / uterine weight, in words ([2]; orally, 0.1 mg/Kg/day) | Serum Cholesterol (% decrease OVX) (serum cholesterol; 1 mg/kg PO) [%] | Serum Cholesterol (% decrease OVX) (serum cholesterol; 10 mg/kg PO) [%] | Uterine EPO (Vmax) ([1]; 1 mg/kg PO) | Uterine EPO (Vmax) ([1]; 10 mg/kg PO) | Uterine Weight (% inc. OVX) ([2]; 1 mg/kg PO) [%] | Uterine Weight (% inc. OVX) ([2]; 10 mg/kg PO) [%] | IC50 [3] [nM] | Relative binding affinity (RBA) (MCF-7 Estrogen Receptor) |
| --- | --- | --- | --- | --- | --- | --- | --- | --- | --- | --- | --- | --- | --- | --- |
| C#C[C@]1(O)CC[C@H]2[C@@H]3CCc4cc(O)ccc4[C@H]3CC[C@@]21C [Ethynyl estradiol, 17a-Ethynyl estradiol, reference compound] | 80.3 | decrease in serum cholesterol | 123.9 | substantial, expected increase in eosinophil infiltration | 144.1 | marked stimulatory action on the uterus | – | – | – | – | – | – | – | – |
| O=C(c1ccc(NCCN2CCCCC2)cc1)c1c(-c2ccc(O)cc2)sc2cc(O)ccc12 [Example 2] | -0.5 | – | 1.8 | – | -5.0 | – | 13.6 | 42.4 | 2.4 | 2.1 | 15.8 | 35.6 | 2 | – |
| O=C(c1ccc(SCCN2CCCCC2)cc1)c1c(-c2ccc(O)cc2)sc2cc(O)ccc12 [Example 4, 6-hydroxy-2-(4-hydroxyphenyl)-3-[4-(2-(piperidin-1-yl)ethylthio)benzoyl]-benzo[b]thiophene] | -16.6 | – | 3.3 | – | 3.5 | – | 37.5 | 47.5 | 1.2 | 1.8 | 23.1 | 16.7 | 0.9 | – |
| CN(CCN1CCCCC1)c1ccc(C(=O)c2c(-c3ccc(O)cc3)sc3cc(O)ccc23)cc1 [Example 6, 6-hydroxy-2-(4-hydroxyphenyl)-3-[4-(N-methyl-N-2-(piperidin-1-yl)ethylamino)benzoyl]-benzo[b]thiophene] | 4.7 | – | 4.5 | – | 17.1 | – | 42.0 | 65.1 | 3.3 | 6.0 | 45.4 | 43.0 | 10 | 0.19 |
| COc1ccc(-c2sc3cc(OC)ccc3c2C(=O)c2ccc(S(=O)(=O)CCN3CCCCC3)cc2)cc1 [Example 7, 6-methoxy-2-(4-methoxyphenyl)-3-[4-(2-(piperidin-1-yl)ethylsulfonyl)benzoyl]benzo[b]thiophene] | -4.4 | – | 7.5 | – | 26.4 | – | 12.0 | 28.7 | 4.8 | 8.4 | 18.6 | 48.4 | 1000 | < 0.002 |
| O=C(c1ccc(S(=O)(=O)CCN2CCCCC2)cc1)c1c(-c2ccc(O)cc2)sc2cc(O)ccc12 [Example 8, 6-hydroxy-2-(4-hydroxyphenyl)-3-[4-(2-(piperidin-1-yl)ethylsulfonyl)benzoyl]benzo[b]thiophene] | -23.3 | – | 4.8 | – | 16.2 | – | 17.2 | 62.3 | 13.5 | 23.1 | 66.9 | 75.0 | 30 | – |
